Laboratory results published in PMC2391127, “Modulation of erlotinib pharmacokinetics in mice by a novel cytochrome P450 3A4 inhibitor, BAS 100” (British Journal of Cancer, 2008).
Like-named read-outs stand apart in the source and are kept apart here.

Columns and labels:
[1] = Plasma pharmacokinetics of erlotinib, OSI-420 and BAS 100 after oral dosing in BALB/c mice; assay type: in vivo; conditions: for Tmax / AUC(0-t) / Cmax / half-life: mouse, po; for AUC(0-t) / Cmax / half-life: BALB/c; for half-life: read-out: HL λz (terminal half-life) (converted)
Description: (§1) BAS 100 was obtained from Bioavailabilty Systems (Cocoa Beach, FL, USA), and erlotinib and OSI-420 were obtained from Toronto Research Chemicals (North York, ON, Canada). All other chemicals and reagents were purchased from Sigma-Aldrich (St Louis, MO, USA). Female BALB/c mice (6–8 weeks old) were kept in a controlled environment, with food and water available ad libitum. All procedures were carried out with NCI Animal Care and Use Committee approval. In the first study, BAS 100 and erlotinib were formulated in 10% DMSO and 5% polysorbate 80 in saline. Mice were randomised to receive erlotinib (10 mg kg^−1, p.o.) alone or 30 min after BAS 100 (10 mg kg^−1, p.o.). Blood was collected by cardiac puncture from three mice per time point at 0.083, 0.25, 0.5, 1, 2, 4, 6 and 24 h following erlotinib administration, and centrifuged to obtain plasma. In the second study, erlotinib was formulated in 0.3% carboxymethylcellulose and 0.1% polysorbate 80 in saline. Female CYP3A4 transgenic mice ([Granvil et al, 2003]) and wild-type FVB/NCr mice (14 weeks old) received erlotinib (10 mg kg^−1, p.o.) alone or 30 min after BAS 100 (25 mg kg^−1, p.o.). Blood was collected 2 h after erlotinib administration. All samples were stored at −80°C until analysis. Plasma concentrations of erlotinib and OSI-420 were measured as described previously ([Zhao et al, 2003]). Plasma concentrations of BAS 100 were measured by a novel liquid chromatography-tandem mass spectrometry method. Briefly, plasma samples were prepared by protein precipitation with acetonitrile. BAS 100 and the internal standard (temazepam) were resolved isocratically on a Waters XTerra MS C18 column (50 × 2.1 mm internal diameter; 3.5 μm particle size). The mass spectrometer was equipped with an electrospray ionisation source and operated in positive mode. Detection was performed by multiple reaction monitoring. The lower limit of quantitation was 10 ng ml^−1. Pharmacokinetic parameters were determined by noncompartmental analysis using WinNonlin Professional Version 5.2 (Pharsight Corporation, Mountain View, CA, USA). Bailer's method ([Bailer, 1988]) was used to estimate the variance of the area under the curve (AUC). A Z-test was used for the pairwise comparison of AUCs ([Yuan, 1993]).

[2] = 2-h plasma concentration of erlotinib in CYP3A4 transgenic mice; conditions: female, mouse, in vivo, po, 10 mg kg^-1
Description: BAS 100 was obtained from Bioavailabilty Systems (Cocoa Beach, FL, USA), and erlotinib and OSI-420 were obtained from Toronto Research Chemicals (North York, ON, Canada). All other chemicals and reagents were purchased from Sigma-Aldrich (St Louis, MO, USA). Female BALB/c mice (6–8 weeks old) were kept in a controlled environment, with food and water available ad libitum. All procedures were carried out with NCI Animal Care and Use Committee approval. In the first study, BAS 100 and erlotinib were formulated in 10% DMSO and 5% polysorbate 80 in saline. Mice were randomised to receive erlotinib (10 mg kg^−1, p.o.) alone or 30 min after BAS 100 (10 mg kg^−1, p.o.). Blood was collected by cardiac puncture from three mice per time point at 0.083, 0.25, 0.5, 1, 2, 4, 6 and 24 h following erlotinib administration, and centrifuged to obtain plasma. In the second study, erlotinib was formulated in 0.3% carboxymethylcellulose and 0.1% polysorbate 80 in saline. […] Plasma concentrations of erlotinib and OSI-420 were measured as described previously ([Zhao et al, 2003]). Plasma concentrations of BAS 100 were measured by a novel liquid chromatography-tandem mass spectrometry method. […] The lower limit of quantitation was 10 ng ml^−1. Pharmacokinetic parameters were determined by noncompartmental analysis using WinNonlin Professional Version 5.2 (Pharsight Corporation, Mountain View, CA, USA). […]

[3] = 2-h plasma concentration of erlotinib in wild-type FVB/NCr mice; assay type: in vivo; conditions: for concentration at 2 h: female, FVB/NCr, mouse, plasma, po
Description: as §1, with “Bailer's method ([Bailer, 1988]) was used to estimate the variance of the area under the curve (AUC). A Z-test was used for the pairwise comparison of AUCs ([Yuan, 1993]).” left out

[4] = ref Hidalgo et al, 2001, cited from earlier work
[5] = female, plasma, 10 mg/kg, plasma, erlotinib 10 mg kg^-1 p.o. 30 min after BAS 100 10 mg kg^-1 p.o., BALB/c mice
[6] = female, plasma, 10 mg/kg, erlotinib 10 mg kg^-1 p.o. alone (-BAS 100), BALB/c mice

For `C#Cc1cccc(Nc2ncnc3cc(OCCOC)c(OCCO)cc23)c1` [OSI-420], the Tmax ([1]; in vivo, 10 mg/kg) was 2.0 h.

With `C#Cc1cccc(Nc2ncnc3cc(OCCOC)c(OCCOC)cc23)c1` [Erlotinib] the “erlotinib exposure after 2.5-fold increase in the dose of BAS 100” value ([1]; BAS 100 25 mg kg^-1 vs 10 mg kg^-1, data not shown) was “did not result in a further increase in erlotinib exposure”, the “fold increase in the AUC of erlotinib by BAS 100” value ([1]; erlotinib 10 mg kg^-1 p.o. after BAS 100 10 mg kg^-1 p.o. vs alone, P<0.05) was 2.1 fold and the AUC(0-t) [1, 5] was 38 µg·h/mL. It also gave a Cmax [1, 5] of 3.95 µg/mL, a half-life [1, 5] of 3.2 h and a half-life ([1]; female, plasma, 10 mg/kg, plasma, erlotinib 10 mg kg^-1 p.o. alone (-BAS 100), BALB/c mice) of 3.1 h. For the same molecule, the AUC(0-t) [1, 6] was 18 µg·h/mL, the Cmax [1, 6] was 2.32 µg/mL and the Tmax ([1]; female, plasma, erlotinib 10 mg kg^-1 p.o. alone (-BAS 100), BALB/c mice, read-out: Tmax) was 0.5 h. The concentration at 2 h [2] was 0.929 ± 0.08 µg/mL, the “fold increase in 2-h plasma concentration of erlotinib by BAS 100” value ([3]; BAS 100 25 mg kg^-1 p.o.) was 1.9 fold and the concentration at 2 h ([3]; erlotinib 10 mg kg^-1 p.o. 30 min after BAS 100 25 mg kg^-1 p.o.) was 1.41 ± 0.237 µg/mL. For the same molecule, the concentration at 2 h ([3]; erlotinib 10 mg kg^-1 p.o. alone) was 0.744 ± 0.135 µg/mL, the “relative extent of metabolism of erlotinib into OSI-420” value ([4]; cancer patients) was 0.12 and the interindividual pharmacokinetic variability ([4]; patients, Tan et al, 2004) was “up to eight-fold”.
